Assay results as given in PMC7114325 (Antiviral Research, 2008).

Experiments:
in vitro [1] = conditions: African green monkey
in vitro [2] = conditions: hamster
West Nile virus = conditions: cited from earlier work

Row | Molecule | CC50 (in vitro [1]) [µM] | CC50 (in vitro [2]) [µM] | activity against West Nile virus (West Nile virus) | CC50 (Vero E6 cells) [µM] | CC50 (BHK-21 cells) [µM]
1 | CC(C)=CCC[C@](C)(O)C1CC[C@@H]2C1CC[C@H]1C2(C)CC[C@H]2C(C)(C)C(=O)CCC12C (stereo partly drawn) [Compound C01225, (5R,9S,14R)-dodecahydro-17-((S)-2-hydroxy-6-methylhept-5-en-2-yl)-4,4,8,10-tetramethyl-2Hcyclopenta[a]phenanthren-3(4H,9H,14H)-one] | > 100 | > 100 |  |  | 
2 | NC(=O)CCS(=O)(=O)c1ccc(Cl)cc1 [Compound C03455, 3-(4-Chlorobenzenesulfonyl)-propionamide] | > 100 | 87 ± 5.23 | active |  | 
3 | COc1cc(/C=C(/NC(=O)c2ccccc2)C(=O)NNC(=O)CN)ccc1O [Compound C11472, (E)-N′-(2-aminoacetyl)-2-(benzamido)-3-(4-hydroxy-3-methoxyphenyl)acrylohydrazide] | 82 ± 4.33 | > 100 |  |  | 
4 | CC1=C(C(=O)OCCc2ccccc2)C(c2ccccc2[N+](=O)[O-])C2=C(CCCC2=O)N1 (stereo not shown) [Compound C12344, 3-Quinolinecarboxylic acid, 1,4,5,6,7,8-hexahydro-2-methyl-4-(2-nitrophenyl)-5-oxo-, 2-phenylethyl ester] | > 100 | > 100 |  |  | 
5 | CCOC(=O)c1cnc2ccc(OCC)cc2c1NCc1ccccc1 [Compound C26505, 4-Benzylamino-6-ethoxy-quinoline-3-carboxylic acid ethylester] | > 100 | 78 ± 4.87 | active |  | 
6 | N#Cc1c(N)nc(Sc2ccc(Cl)cc2)c(C#N)c1-c1cccs1 [Compound C47655, 2-Amino-6-[(4-chlorophenyl)thio]-4-(2-thienyl)pyridine-3,5-dicarbonitrile] | > 100 | > 100 |  |  | 
7 | S-Nitroso-N-acetyl penicillamine [Compound C38477] |  |  |  | 84 ± 2.96 | 58 ± 1.22
